Assay results from publication PMC9329436, “Optimization of the 4-anilinoquin(az)oline scaffold as epidermal growth factor receptor (EGFR) inhibitors for chordoma utilizing a toxicology profiling assay platform” (Scientific Reports, 2022).
Like-named read-outs stand apart in the source and are kept apart here.

Legend:
Type in all cases: biochemical
[1] = target: 320 wild-type protein kinases (Homo sapiens, UniProt Q02750); conditions: singlicate
Excerpt: (§1) Table S4. Profiling of two compounds at two concentrations against 320 wild-type protein kinases; singlicate measurement; Residual activities (% of control).

[2] = target: T1, 320 wild-type protein kinases (Homo sapiens, UniProt Q8NG66); conditions: singlicate
T1 sequence (Q8NG66 1-645): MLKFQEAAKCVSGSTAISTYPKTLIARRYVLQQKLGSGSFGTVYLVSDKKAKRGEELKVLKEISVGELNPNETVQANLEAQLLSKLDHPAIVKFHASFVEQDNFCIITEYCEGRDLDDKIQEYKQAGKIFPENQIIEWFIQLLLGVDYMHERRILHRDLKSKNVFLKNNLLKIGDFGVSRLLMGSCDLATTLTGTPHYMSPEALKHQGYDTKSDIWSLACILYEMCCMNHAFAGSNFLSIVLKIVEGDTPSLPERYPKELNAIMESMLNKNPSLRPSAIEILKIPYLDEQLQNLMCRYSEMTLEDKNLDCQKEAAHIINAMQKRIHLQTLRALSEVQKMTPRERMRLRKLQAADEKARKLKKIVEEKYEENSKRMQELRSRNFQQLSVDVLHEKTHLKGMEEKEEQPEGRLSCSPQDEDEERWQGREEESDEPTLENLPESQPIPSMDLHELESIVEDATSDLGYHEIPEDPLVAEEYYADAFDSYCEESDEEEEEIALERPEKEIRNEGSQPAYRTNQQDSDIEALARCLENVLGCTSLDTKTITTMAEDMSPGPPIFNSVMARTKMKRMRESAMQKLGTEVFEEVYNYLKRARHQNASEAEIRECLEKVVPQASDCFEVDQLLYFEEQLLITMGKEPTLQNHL
Excerpt: as §1

[3] = target: 320 wild-type protein kinases (Homo sapiens, UniProt P53667); conditions: singlicate
Sequence of 320 wild-type protein kinases (Homo sapiens, UniProt P53667) (P53667 whole entry): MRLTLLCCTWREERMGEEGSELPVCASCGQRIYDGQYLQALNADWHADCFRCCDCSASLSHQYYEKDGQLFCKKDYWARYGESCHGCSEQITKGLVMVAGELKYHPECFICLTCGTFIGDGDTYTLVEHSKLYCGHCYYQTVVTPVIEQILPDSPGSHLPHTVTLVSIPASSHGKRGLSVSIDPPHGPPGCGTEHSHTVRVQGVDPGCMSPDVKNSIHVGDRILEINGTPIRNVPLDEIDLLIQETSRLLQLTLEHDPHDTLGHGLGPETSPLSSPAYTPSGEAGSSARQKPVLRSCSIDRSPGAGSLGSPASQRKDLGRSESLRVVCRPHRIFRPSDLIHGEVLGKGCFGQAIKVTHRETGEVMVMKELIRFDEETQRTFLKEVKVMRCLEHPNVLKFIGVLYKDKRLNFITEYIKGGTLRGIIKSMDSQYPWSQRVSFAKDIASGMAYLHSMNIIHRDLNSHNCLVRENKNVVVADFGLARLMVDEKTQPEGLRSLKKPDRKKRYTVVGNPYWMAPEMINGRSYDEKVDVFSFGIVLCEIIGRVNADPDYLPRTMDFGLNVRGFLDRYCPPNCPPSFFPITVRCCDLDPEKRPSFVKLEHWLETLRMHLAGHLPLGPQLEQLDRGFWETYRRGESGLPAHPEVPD
Excerpt: as §1

[4] = target: 320 wild-type protein kinases (Homo sapiens, UniProt P49674); conditions: CK1-epsilon, singlicate
Sequence of 320 wild-type protein kinases (Homo sapiens, UniProt P49674) (P49674 whole entry): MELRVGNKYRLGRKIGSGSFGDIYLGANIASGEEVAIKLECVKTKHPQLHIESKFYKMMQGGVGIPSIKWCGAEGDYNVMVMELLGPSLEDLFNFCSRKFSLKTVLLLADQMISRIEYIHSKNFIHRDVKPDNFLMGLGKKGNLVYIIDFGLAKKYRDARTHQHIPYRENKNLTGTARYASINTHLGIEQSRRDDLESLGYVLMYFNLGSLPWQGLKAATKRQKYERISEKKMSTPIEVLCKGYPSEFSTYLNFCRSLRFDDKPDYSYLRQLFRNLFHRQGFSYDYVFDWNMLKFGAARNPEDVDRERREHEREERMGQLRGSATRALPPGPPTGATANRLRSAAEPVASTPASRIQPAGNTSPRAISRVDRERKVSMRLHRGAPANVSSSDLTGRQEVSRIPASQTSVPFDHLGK
Excerpt: as §1

[5] = target: 320 wild-type protein kinases (Homo sapiens, UniProt P28482); conditions: singlicate
Sequence of 320 wild-type protein kinases (Homo sapiens, UniProt P28482) (P28482 whole entry): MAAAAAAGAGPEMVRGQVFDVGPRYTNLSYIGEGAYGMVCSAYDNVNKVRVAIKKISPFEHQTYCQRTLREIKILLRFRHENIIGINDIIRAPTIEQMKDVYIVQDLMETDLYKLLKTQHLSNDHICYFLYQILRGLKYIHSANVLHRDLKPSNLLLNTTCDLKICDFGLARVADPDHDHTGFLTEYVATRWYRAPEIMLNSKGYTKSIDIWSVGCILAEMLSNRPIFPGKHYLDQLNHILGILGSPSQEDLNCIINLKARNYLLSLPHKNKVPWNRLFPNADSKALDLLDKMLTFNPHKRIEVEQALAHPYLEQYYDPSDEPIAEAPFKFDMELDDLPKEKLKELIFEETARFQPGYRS
Excerpt: as §1

[6] = target: 320 wild-type protein kinases (Homo sapiens, UniProt P32298); conditions: singlicate
Sequence of 320 wild-type protein kinases (Homo sapiens, UniProt P32298) (P32298 whole entry): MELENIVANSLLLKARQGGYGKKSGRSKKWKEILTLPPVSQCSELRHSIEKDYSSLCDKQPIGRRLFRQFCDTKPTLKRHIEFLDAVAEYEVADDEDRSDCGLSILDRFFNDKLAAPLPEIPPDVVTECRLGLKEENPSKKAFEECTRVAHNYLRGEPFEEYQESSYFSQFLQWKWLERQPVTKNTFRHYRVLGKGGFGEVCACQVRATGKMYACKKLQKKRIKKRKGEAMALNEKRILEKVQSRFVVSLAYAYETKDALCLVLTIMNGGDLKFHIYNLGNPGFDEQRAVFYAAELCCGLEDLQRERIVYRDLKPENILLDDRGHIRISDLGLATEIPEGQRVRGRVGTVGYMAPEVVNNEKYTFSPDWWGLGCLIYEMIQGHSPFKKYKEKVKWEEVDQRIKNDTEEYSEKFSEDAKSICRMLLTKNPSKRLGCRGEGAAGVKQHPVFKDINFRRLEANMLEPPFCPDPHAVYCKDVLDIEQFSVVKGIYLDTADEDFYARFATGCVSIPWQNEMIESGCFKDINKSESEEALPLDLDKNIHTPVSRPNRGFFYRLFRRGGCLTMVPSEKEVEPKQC
Excerpt: as §1

[7] = target: 320 wild-type protein kinases (Homo sapiens, UniProt P54764); conditions: singlicate
Sequence of 320 wild-type protein kinases (Homo sapiens, UniProt P54764) (P54764 20-986): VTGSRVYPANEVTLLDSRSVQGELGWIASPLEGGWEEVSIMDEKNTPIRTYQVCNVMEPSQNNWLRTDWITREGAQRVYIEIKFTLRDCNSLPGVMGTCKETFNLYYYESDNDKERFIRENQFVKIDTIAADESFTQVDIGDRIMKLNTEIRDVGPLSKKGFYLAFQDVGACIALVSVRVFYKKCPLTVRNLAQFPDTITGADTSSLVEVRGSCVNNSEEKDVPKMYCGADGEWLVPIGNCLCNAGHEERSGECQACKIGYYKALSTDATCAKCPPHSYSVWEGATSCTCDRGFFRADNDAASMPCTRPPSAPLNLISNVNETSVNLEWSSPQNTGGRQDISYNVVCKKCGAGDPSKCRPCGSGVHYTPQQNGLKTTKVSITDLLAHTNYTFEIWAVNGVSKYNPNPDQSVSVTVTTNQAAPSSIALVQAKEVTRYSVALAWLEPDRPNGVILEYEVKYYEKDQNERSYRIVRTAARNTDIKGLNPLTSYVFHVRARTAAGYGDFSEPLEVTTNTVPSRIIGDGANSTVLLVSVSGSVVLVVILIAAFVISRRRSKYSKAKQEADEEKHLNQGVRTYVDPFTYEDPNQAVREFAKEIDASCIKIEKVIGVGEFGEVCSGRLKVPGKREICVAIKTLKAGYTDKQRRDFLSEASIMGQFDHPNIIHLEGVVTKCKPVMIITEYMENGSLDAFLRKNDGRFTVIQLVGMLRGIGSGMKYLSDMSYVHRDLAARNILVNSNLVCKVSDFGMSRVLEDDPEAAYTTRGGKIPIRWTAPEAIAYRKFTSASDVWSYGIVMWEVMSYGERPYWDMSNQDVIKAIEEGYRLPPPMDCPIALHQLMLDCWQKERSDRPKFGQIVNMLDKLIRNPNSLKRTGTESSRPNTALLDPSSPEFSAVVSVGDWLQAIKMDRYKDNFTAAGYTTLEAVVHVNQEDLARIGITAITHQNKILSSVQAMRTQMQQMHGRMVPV
Excerpt: as §1

[8] = target: 320 wild-type protein kinases (Homo sapiens, UniProt Q9H1R3); conditions: singlicate
Sequence of 320 wild-type protein kinases (Homo sapiens, UniProt Q9H1R3) (Q9H1R3 whole entry): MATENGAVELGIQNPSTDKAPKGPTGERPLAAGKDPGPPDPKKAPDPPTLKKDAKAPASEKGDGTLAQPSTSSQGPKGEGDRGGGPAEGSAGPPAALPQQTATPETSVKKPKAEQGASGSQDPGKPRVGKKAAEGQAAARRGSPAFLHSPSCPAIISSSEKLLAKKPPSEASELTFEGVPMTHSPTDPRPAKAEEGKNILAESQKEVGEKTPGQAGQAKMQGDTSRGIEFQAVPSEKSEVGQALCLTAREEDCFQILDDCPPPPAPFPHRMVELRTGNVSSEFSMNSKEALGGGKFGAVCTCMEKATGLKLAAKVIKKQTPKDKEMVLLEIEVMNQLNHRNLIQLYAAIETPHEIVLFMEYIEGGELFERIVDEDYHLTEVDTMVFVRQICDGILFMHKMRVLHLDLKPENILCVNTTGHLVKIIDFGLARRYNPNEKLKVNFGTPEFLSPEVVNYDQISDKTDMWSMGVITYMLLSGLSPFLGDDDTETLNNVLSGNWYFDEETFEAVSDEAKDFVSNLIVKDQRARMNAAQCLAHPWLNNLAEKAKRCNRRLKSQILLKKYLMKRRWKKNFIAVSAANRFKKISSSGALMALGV
Excerpt: as §1

[9] = target: T2, 320 wild-type protein kinases (Homo sapiens, UniProt Q14164); conditions: IKK-epsilon, singlicate
T2 sequence (Q14164 1-716): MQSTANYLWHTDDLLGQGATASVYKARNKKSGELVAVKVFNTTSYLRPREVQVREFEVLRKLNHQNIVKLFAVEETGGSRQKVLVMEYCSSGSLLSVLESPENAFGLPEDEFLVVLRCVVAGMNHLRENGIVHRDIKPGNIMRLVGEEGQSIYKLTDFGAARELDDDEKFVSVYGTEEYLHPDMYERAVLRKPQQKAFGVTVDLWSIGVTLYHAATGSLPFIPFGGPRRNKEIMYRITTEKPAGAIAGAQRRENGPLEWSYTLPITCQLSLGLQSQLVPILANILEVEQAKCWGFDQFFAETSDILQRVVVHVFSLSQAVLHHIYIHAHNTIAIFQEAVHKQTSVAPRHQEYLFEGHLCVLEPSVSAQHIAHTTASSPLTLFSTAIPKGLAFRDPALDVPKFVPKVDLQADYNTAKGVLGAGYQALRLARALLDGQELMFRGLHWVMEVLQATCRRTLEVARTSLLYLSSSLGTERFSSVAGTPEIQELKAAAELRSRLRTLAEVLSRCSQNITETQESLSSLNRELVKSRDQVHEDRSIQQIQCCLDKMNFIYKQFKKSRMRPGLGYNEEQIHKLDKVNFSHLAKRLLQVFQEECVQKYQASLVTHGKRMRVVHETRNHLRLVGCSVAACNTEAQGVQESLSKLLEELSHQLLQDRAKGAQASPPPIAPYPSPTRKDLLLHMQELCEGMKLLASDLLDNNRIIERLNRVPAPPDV
Excerpt: as §1

[10] = target: 320 wild-type protein kinases (Homo sapiens, UniProt Q9H4B4); conditions: singlicate
Sequence of 320 wild-type protein kinases (Homo sapiens, UniProt Q9H4B4) (Q9H4B4 whole entry): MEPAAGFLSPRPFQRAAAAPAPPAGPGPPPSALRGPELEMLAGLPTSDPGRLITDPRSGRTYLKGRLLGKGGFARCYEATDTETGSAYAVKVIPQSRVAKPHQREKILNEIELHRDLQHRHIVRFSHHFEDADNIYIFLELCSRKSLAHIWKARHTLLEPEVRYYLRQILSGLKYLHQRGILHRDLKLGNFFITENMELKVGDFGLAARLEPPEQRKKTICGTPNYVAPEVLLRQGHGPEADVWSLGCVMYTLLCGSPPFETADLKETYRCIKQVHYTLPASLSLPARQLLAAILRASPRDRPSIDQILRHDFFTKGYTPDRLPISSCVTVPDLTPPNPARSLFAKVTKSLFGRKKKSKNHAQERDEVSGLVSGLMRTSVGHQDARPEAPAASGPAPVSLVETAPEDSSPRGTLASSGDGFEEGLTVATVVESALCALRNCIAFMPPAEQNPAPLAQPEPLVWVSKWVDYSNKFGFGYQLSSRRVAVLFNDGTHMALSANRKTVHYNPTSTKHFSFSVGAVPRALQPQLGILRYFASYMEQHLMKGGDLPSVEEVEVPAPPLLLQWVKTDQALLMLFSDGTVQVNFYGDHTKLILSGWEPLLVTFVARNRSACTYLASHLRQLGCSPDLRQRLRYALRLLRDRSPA
Excerpt: as §1

Sequence of 320 wild-type protein kinases (Homo sapiens, UniProt Q02750) (Q02750 whole entry): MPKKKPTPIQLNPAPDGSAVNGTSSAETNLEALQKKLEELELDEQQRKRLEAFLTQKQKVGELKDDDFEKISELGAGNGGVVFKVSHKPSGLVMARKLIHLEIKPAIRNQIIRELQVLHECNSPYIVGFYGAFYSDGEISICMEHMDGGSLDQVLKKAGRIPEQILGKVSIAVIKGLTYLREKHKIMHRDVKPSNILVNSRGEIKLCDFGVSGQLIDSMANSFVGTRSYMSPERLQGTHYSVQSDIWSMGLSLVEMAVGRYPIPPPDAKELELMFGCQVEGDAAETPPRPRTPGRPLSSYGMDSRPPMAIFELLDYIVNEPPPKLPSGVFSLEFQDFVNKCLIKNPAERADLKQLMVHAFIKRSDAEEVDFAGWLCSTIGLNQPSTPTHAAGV

Row | Structure (SMILES) | Residual activity ([1]; MEK1, 1.0E-06 M) | Residual activity ([1]; MEK1, 1.0E-07 M) | Residual activity ([2]; NEK11, 1.0E-06 M) | Residual activity ([2]; NEK11, 1.0E-07 M) | Residual activity ([3]; LIMK1, 1.0E-06 M) | Residual activity ([3]; LIMK1, 1.0E-07 M) | Residual activity ([4]; 1.0E-06 M) | Residual activity ([4]; 1.0E-07 M) | Residual activity ([5]; ERK2, 1.0E-06 M) | Residual activity ([5]; ERK2, 1.0E-07 M) | Residual activity ([6]; GRK4, 1.0E-06 M) | Residual activity ([6]; GRK4, 1.0E-07 M) | Residual activity ([7]; EPHA4, 1.0E-06 M) | Residual activity ([7]; EPHA4, 1.0E-07 M) | Residual activity ([8]; MYLK2, 1.0E-06 M) | Residual activity ([8]; MYLK2, 1.0E-07 M) | Residual activity ([9]; 1.0E-06 M) | Residual activity ([9]; 1.0E-07 M) | Residual activity ([10]; PLK3, 1.0E-06 M) | Residual activity ([10]; PLK3, 1.0E-07 M)
1 | C#Cc1cc(Nc2ncnc3cc(I)ccc23)ccc1Cl [Compound 41] | 104 % of control | 109 % of control | 95 % of control | 82 % of control | 86 % of control | 101 % of control | 118 % of control | 124 % of control | 86 % of control | 90 % of control | 113 % of control | 128 % of control | 83 % of control | 96 % of control | 75 % of control | 90 % of control | 94 % of control | 108 % of control | 102 % of control | 109 % of control
2 | C#Cc1cc(Nc2ncnc3cc(OC)c(OC)cc23)ccc1Cl [Compound 45] | 109 % of control | 105 % of control | 103 % of control | 106 % of control | 90 % of control | 103 % of control | 120 % of control | 124 % of control | 87 % of control | 94 % of control | 126 % of control | 121 % of control | 61 % of control | 99 % of control | 70 % of control | 89 % of control | 101 % of control | 108 % of control | 98 % of control | 103 % of control
